The source of these data is patent US12433903B2 (priority 2021, dated 2025).

In this series the target is T1, UGT1A4 (Homo sapiens, UniProt P22310).
T1 construct: purchased BD Biosciences
T1 sequence (P22310 29-534): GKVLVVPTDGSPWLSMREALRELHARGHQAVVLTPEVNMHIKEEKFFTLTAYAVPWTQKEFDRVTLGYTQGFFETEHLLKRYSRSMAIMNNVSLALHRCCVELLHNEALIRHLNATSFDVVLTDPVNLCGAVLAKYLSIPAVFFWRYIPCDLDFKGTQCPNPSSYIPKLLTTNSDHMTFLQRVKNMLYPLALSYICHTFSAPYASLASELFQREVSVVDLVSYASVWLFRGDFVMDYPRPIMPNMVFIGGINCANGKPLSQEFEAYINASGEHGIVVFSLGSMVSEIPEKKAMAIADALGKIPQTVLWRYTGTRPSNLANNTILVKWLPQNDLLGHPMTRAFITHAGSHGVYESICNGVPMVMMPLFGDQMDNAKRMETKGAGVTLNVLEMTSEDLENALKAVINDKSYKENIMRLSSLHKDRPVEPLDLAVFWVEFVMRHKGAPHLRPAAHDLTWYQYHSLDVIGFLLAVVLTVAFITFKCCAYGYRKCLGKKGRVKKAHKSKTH
Description: UGT reaction phenotyping, UGT1A4. The conditions noted are these: glucuronide formed from trifluoperazine 1 μM, printed in the half-life column with *. Type of series: in vitro ADME. From the text:
Experimental Summary: UGT Reaction Phenotyping (7 Isoforms).

For the compound `C[N+]1([C@@H]2O[C@H](C(=O)[O-])[C@@H](O)[C@H](O)[C@H]2O)CCN(CCCN2c3ccccc3Sc3ccc(C(F)(F)F)cc32)CC1` [Trifluoperazine Glucuronide], the “average peak area ratio at 60 min/average peak area ratio at 0 min” value is listed as “*6.38”.
